In patent publication US10898577B2, “Conjugate of ginsenoside compound K and glycol chitosan and an anti-tumor use thereof” (priority 2015, dated 2021):

Test system: HT-29 (human colon cancer) cell line
Protocol: To observe the anticancer activity of the GC-CK conjugates, the cytotoxicity of pure GC, CK, and GC-CK conjugates were confirmed in anticancer cells by MTT assay.
Specifically, the HT-29 (human colon cancer) cell line was purchased from the Korean Cell Line Bank (Seoul, Korea) and cultured in RPMI 1640 medium (Welgene, Inc.) containing 1% (w/v) penicillin-streptomycin (Welgene, Inc.) and 10% (v/v) FBS (Welgene, Inc.) in 5% CO2 and 95% humidity at 37° C. The cells were inoculated at a density of 2×10^4 cells/well in 96-well plates (SPL Life Sciences, Korea). After growing for 24 h, the culture medium was replaced with the culture medium containing 100 μL, of various concentrations of GC, standard GC, and GC-CK and cultured for 24 h at 37° C. Next, 10 μL of 3-(4, 5-dimethylthiazol-2-yl)-2, 5-diphenyl-tertazolium bromide) (MTT) was added and the plates were cultured for 3 hours at 37° C. The culture medium was then removed and blue formazan crystals were dissolved with 100 μL of DMSO. The optical density was measured at 570 nm using a Synergy HT multidetection microplate reader (Molecular Devices, BioTek Instruments, Winooski, Vt., USA).

With Glycol chitosan [GC] the “cytotoxicity in HT29 cells” value was “did not exhibit any cytotoxicity”.
